Drawing on patent US20240368133A1, “Compounds for the Treatment of Pain, in Particular, Neuropathic Pain, and/or Other Diseases or Disorders that are Associated with AT2R and/or AT2R Mediated Signaling” (Confo Therapeutics N.V., priority 2021, published 2024), this text covers inhibition and IC50 for 24 compounds.

The structures appear in SMILES notation.

One assay has as its target human AT1R (Homo sapiens (Human), UniProt P30556). The assay can be described thus: Counterscreen radioligand binding assay, displacement of 125I-[Sar1, Ile8]-Angiotensin II, hAT1R WT. As to conditions: for inhibition at 1 µM / inhibition at 10 µM: 125I-[Sar1, Ile8]-Ang II, semi-quantitative score; for inhibition at 1 µM: compound at 1 μM, read-out: % Displaced radioligand at 1 μM; for inhibition at 10 µM: compound at 10 μM, read-out: % Displaced radioligand at 10 μM; for IC50: HEK-293 cell membranes, read-out: Binding affinity On hAT1R IC50. The method, then: (§1) All synthesized ligands were evaluated in a radioligand assay by displacing ^125I-[Sar1, Ile8]-Angiotensin II (Perkin Elmer, NEX248050UC) from human AT2R fused to Cb23 or human/rodent/cynomolgus/minipig/dog WT AT2R in HEK-293 cells membrane preparations, using C21 (Vicore Pharma) and Angiotensin II (endogenous ligand) as reference. The affinity was determined using an eight-point dose-response curve, each point performed in duplicates. The compounds were also evaluated in a counterscreen binding assay for displacement of ^125I-[Sar1, Ile8]-Angiotensin II binding to human AT1R in HEK-293 cell membranes. For AT1R, the percent displacement was determined at 1 μM and […] (in duplicates) or using an eight-point dose-response curve, each point performed in duplicates with Candesartan and Losartan used as reference.
(§2) For the AT2R/AT1R binding assays, cell membranes, expressing AT2R_Cb23, AT2R or AT1R, were incubated with 0.05 nM ^125I-[Sarl, Ile8]-Ang II. The ligand competition assay was performed in a total volume of 100 μL assay buffer (50 mM Tris, 5 mM MgCl2, 1 mM EDTA, 0.1% BSA, pH 7.4), at concentrations ranging from […] to 10 μM. For each experiment, each ligand concentration was tested in duplicate. Non-specific binding (NSB) was determined by the inclusion of 10 μM unlabeled [Sarl]-Ang II (Sigma Aldrich). The reaction was initiated by the addition of radioligand, after which the plates were incubated at 25° C. for one hour. The reaction was terminated by rapid filtration using a vacuum harvester, applying six washes with 100 μL of ice-cold wash buffer (50 mM Tris.HCl, pH 7.4). The filter plates GF/C (Perkin Elmer) were pre-soaked in 0.5% PEI. The residual amount of radioactivity was determined via liquid scintillation counting. IC50 values, representing the concentration at which each ligand displaced 50% of ^125I-[Sarl, Ile8]-Ang II, were calculated using GraphPad Prism 7.02 by applying a Non-linear regression equation (variable slope, four parameters) on the data. The obtained values serve as affinity estimates for each ligand and their ability to compete against the radioligand for binding with AT2R or AT1R, respectively.
(A counterscreen serves to expose hits that act by an unwanted route or on another target.)

In the next assay the target is human AT2R fused to Cb23 (Homo sapiens, UniProt P50052). The assay can be described thus: Radioligand binding assay, displacement of 125I-[Sar1, Ile8]-Angiotensin II, hAT2R Cb23. The following applies: displacement of 125I-[Sar1, Ile8]-Angiotensin II, human AT2R fused to Cb23, HEK-293 cell membrane preparations; read-out: Binding affinity on hAT2R_Cb23 IC50. The method, then:
as §1, §2
A general note: Loss of bound radioactivity is the signal in a displacement assay; it reports binding, not function.

human AT1R, sequence (P30556 whole entry, the tested form may be a part): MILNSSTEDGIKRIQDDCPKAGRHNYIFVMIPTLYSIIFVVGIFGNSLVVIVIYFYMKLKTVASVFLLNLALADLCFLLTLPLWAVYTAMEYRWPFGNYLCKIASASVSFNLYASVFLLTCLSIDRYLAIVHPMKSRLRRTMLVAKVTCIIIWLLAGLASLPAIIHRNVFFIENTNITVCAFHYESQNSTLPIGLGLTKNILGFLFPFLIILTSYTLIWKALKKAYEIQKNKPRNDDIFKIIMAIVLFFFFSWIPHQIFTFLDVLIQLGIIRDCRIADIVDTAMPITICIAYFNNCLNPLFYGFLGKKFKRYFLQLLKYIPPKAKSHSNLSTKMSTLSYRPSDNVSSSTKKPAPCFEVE
human AT2R fused to Cb23, sequence (P50052 whole entry, looked up, the tested form may be a part): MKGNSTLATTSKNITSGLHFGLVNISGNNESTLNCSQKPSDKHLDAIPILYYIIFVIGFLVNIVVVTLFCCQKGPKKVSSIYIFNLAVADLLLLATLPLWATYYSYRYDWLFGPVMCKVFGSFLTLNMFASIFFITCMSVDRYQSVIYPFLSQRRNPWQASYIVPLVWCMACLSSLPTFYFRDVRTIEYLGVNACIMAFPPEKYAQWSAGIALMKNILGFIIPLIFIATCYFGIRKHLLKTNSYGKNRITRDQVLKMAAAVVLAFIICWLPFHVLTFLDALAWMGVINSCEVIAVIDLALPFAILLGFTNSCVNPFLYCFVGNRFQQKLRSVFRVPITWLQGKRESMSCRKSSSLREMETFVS

As usually defined, the IC50 is the concentration that inhibits the measured activity by half. `CCNc1cc(-c2nn[nH]n2)c(N2CCN(Cc3nc4ccccc4s3)CC2)cc1CC(C)C` [Compound A-140, 4-[4-(1,3-benzo-thiazol-2-ylmethyl)-piperazin-1-yl]-N-ethyl-2-isobutyl-5-(2H-tetrazol-5-yl)-aniline]: on human AT1R, the inhibition at 1 µM is below 30%, the inhibition at 10 µM lay within 30 to 50% and the IC50 amounted to 24.7 µM. The IC50 on human AT2R fused to Cb23 turned out to be 0.736 µM.

As to `CC(C)Cc1ccc(-c2nn[nH]n2)c(C(=O)N2CCN(Cc3cccnn3)CC2)c1` [Compound A-239, [5-isobutyl-2-(2H-tetrazol-5-yl)phenyl]-[4-(pyridazin-3-ylmethyl)piperazin-1-yl]methanone], on human AT1R, the inhibition at 1 µM is below 30% and the inhibition at 10 µM is below 30%. Also, the IC50 at human AT2R fused to Cb23 was 2.57 µM.

For the compound `CCS(=O)(=O)NC(=O)c1ccc(OC2CC2)cc1N1CCN(Cc2nc3ccccc3s2)CC1` [Compound A-41, 2-[4-(1,3-benzothiazol-2-ylmethyl)piperazin-1-yl]-4-(cyclopropoxy)-N-ethylsulfonyl-benzamide], on human AT1R, the inhibition at 1 µM is below 30%, the inhibition at 10 µM fell in the range of 30 to 50% and the IC50 was found to be 16.5 µM. In addition, the IC50 at human AT2R fused to Cb23 was determined as 2.54 µM.

As to `CC(C)Cc1cc(F)c(-c2nn[nH]n2)c(N2CCN(Cc3ccc(F)cn3)CC2)c1` [Compound A-195, 1-[3-fluoro-5-isobutyl-2-(2H-tetrazol-5-yl)phen-yl]-4-[(5-fluoro-2-pyridyl)methyl]-piperazine], at human AT1R, the inhibition at 1 µM was below 30% and the inhibition at 10 µM is below 30%. The IC50 on human AT2R fused to Cb23 was 0.537 µM.

For `CC(C)Cc1cc(F)c(-c2nn[nH]n2)c(N2C[C@@H](C)N(Cc3cccnn3)[C@H](C)C2)c1` [Compound A-185, 3-[[(2R,6R)-4-[3-fluoro-5-isobutyl-2-(2H-tetrazol-5-yl)-phenyl]-2,6-dimeth-yl-piperazin-1-yl]-methyl]pyridazine], at human AT1R, the inhibition at 1 µM is below 30% and the inhibition at 10 µM was below 30%. Also, on human AT2R fused to Cb23, the IC50 came out at 0.0696 µM.

Take `CCc1nc2ccc(NC(=O)C3CC3)cc2c(=O)n1CC1CCN(c2ccccc2-c2nn[nH]n2)CC1` [Compound A-247, N-[2-ethyl-4-oxo-3-[[1-[2-(2H-tetrazol-5-yl)phenyl]-4-piperidyl]methyl]-quinazolin-6-yl]-cyclopropane-carboxamide]: at human AT2R fused to Cb23, the IC50 worked out at 35.3 µM.

For the compound `CCOc1cc(-c2nn[nH]n2)c(N2CCN(Cc3cccnn3)CC2)cc1OC(C)C` [Compound A-162, 3-[[4-[4-ethoxy-5-isopropoxy-2-(2H-tetrazol-5-yl)phen-yl]piperazin-1-yl]-methyl]pyridazine], on human AT2R fused to Cb23, the IC50 is 20.7 µM.

For the compound `Cn1c(CN2CCN(c3ccccc3-c3nn[nH]n3)CC2)nc2ccccc21` [Compound A-15], the IC50 on human AT2R fused to Cb23 came to 42.9 µM.

Regarding `CC(C)Cc1ccc(-c2nn[nH]n2)c(N2CCN(Cc3cn(C)cn3)CC2)c1` [Compound A-109, 1-[5-isobutyl-2-(2H-tetrazol-5-yl)phen-yl]-4-[(1-methyl-imidazol-4-yl)meth-yl]piperazine], the IC50 at human AT2R fused to Cb23 was 40.4 µM.

With `CC(C)Cc1cc(F)c(-c2nn[nH]n2)c(N2CCC(Cc3ccccn3)CC2)c1` [Compound A-237, 2-[[1-[3-fluoro-5-isobutyl-2-(2H-tetrazol-5-yl)phenyl]-4-piperidyl]methyl]pyridine], the IC50 at human AT2R fused to Cb23 is 0.442 µM.

On to `Cc1nnc(CN2CCN(c3cc(CC(C)C)ccc3-c3nn[nH]n3)CC2)o1` [Compound A-92], for which the IC50 on human AT2R fused to Cb23 worked out at 15.6 µM.

Take `COc1cc(N2CCN(Cc3nc4ccccc4s3)CC2)c(-c2nn[nH]n2)cc1F` [Compound A-117, 2-[[4-[4-fluoro-5-methoxy-2-(2H-tetrazol-5-yl)phen-yl]piperazin-1-yl]-methyl]-1,3-benzo-thiazole]: the IC50 at human AT2R fused to Cb23 is 52.6 µM.

On to `Cc1cc(=O)nc(CN2CCN(c3cc(CC(C)C)ccc3-c3nn[nH]n3)CC2)[nH]1` [Compound A-100, 2-[[4-[5-isobutyl-2-(2H-tetrazol-5-yl)phenyl]piperazin-1-yl]methyl]-6-methyl-1H-pyrimidin-4-one], for which the IC50 on human AT2R fused to Cb23 came to 16.5 µM.

For `CC(C)Cc1ccc(-c2nn[nH]n2)c(N2CCN(Cc3ncon3)CC2)c1` [Compound A-108, 3-[[4-[5-isobutyl-2-(2H-tetrazol-5-yl)-phenyl]piperazin-1-yl]methyl]-1,2,4-oxadiazole], the IC50 on human AT2R fused to Cb23 amounted to 41.7 µM.

As for `c1ccc2sc(CN3CCN(c4cc(C5CC5)ncc4-c4nn[nH]n4)CC3)nc2c1` [Compound A-144, 2-[[4-[2-cycloprop-yl-5-(2H-tetrazol-5-yl)-4-pyridyl]piper-azin-1-yl]methyl]-1,3-benzothiazole], the IC50 at human AT2R fused to Cb23 turned out to be 14.8 µM.

Take `CCc1nc2ccccc2c(=O)n1CC1CCN(c2ccccc2C(=O)NS(=O)(=O)CC)CC1` [Compound A-241, 2-[4-[(2-ethyl-4-oxo-quinazolin-3-yl)methyl]-1-piperidyl]-N-ethyl-sulfonyl-benzamide]: at human AT2R fused to Cb23, the IC50 was found to be 42.5 µM.

`CCNc1cc(-c2nn[nH]n2)c(N2CCN(Cc3nc4ccccc4s3)CC2)cc1C1CC1` [Compound A-130, 4-[4-(1,3-benzothi-azol-2-ylmethyl)-piperazin-1-yl]-2-cyclopropyl-N-eth-yl-5-(2H-tetrazol-5-yl)aniline]: the half-maximal inhibitory concentration (IC50) at human AT2R fused to Cb23 turned out to be 28.8 µM.

Regarding `Cc1ncc(CN2CCN(c3cc(CC(C)C)ccc3-c3nn[nH]n3)CC2)cn1` [Compound A-103, 5-[[4-[5-isobutyl-2-(2H-tetrazol-5-yl)-phenyl]piperazin-1-yl]methyl]-2-methyl-pyrimidine], the concentration for half-maximal inhibition (IC50) on human AT2R fused to Cb23 amounted to 12.2 µM.

On to `CC(C)Oc1cc(F)c(-c2nn[nH]n2)c(N2CCN(Cc3cccnn3)CC2)c1` [Compound A-156, 3-[[4-[3-fluoro-5-isopropoxy-2-(2H-tetrazol-5-yl)phen-yl]piperazin-1-yl]-methyl]pyridazine], for which the IC50 on human AT2R fused to Cb23 is 11.6 µM.

As for `Cc1nc(=O)cc(CN2CCN(c3cc(CC(C)C)ccc3-c3nn[nH]n3)CC2)[nH]1` [Compound A-95, 6-[[4-[5-isobutyl-2-(2H-tetrazol-5-yl)phenyl]piperazin-1-yl]methyl]-2-methyl-1H-pyrimidin-4-one], the IC50 at human AT2R fused to Cb23 amounted to 43.3 µM.

Regarding `Cc1cc(-c2nn[nH]n2)c(N2CCN(Cc3nc4ccccc4s3)CC2)cc1C1CC1` [Compound A-126, 2-[[4-[5-cycloprop-yl-4-methyl-2-(2H-tetrazol-5-yl)phen-yl]piperazin-1-yl]-methyl]-1,3-benzo-thiazole], the IC50 on human AT2R fused to Cb23 worked out at 22.6 µM.

As to `O=c1[nH]c(CN2CCN(c3ccccc3-c3nn[nH]n3)CC2)nc2ccccc12` [Compound A-26, 2-[[4-[2-(2H-tetrazol-5-yl)phen-yl]piperazin-1-yl]-methyl]-3H-quin-azolin-4-one], the IC50 on human AT2R fused to Cb23 stood at 111 µM.

For the compound `CC(C)Oc1ccc(-c2nn[nH]n2)c(N2CCN(Cc3cccnn3)CC2)c1F` [Compound A-157, 3-[[4-[2-fluoro-3-isopropoxy-6-(2H-tetrazol-5-yl)phen-yl]piperazin-1-yl]-methyl]pyridazine], the IC50 at human AT2R fused to Cb23 was 34.4 µM.

Regarding `Fc1cc(-c2nn[nH]n2)c(N2CCN(Cc3nc4ccccc4s3)CC2)cc1C1CC1` [Compound A-124, 2-[[4-[5-cycloprop-yl-4-fluoro-2-(2H-tetrazol-5-yl)phen-yl]piperazin-1-yl]-methyl]-1,3-benzo-thiazole], the half-maximal inhibitory concentration (IC50) at human AT2R fused to Cb23 amounted to 18.1 µM.
